{"source": "patent US20040033482A1", "about": "“Device and method for the measurement of forces from living materials” (priority 2000, published 2004)"}
{"test_system": "fibroblasts (or smooth muscle cells)", "experiment": "Measurement of lateral intrinsic forces of a cell layer cultured on an elastically deformable membrane (membrane deflection read by laser)", "format": "cell-based", "conditions": "FIG. 4; consecutive addition of thrombin (20, 50, 100 U/ml), EDTA (0.1% by weight, 2 min), trypsin (0.2% by weight, 15 min)", "description": "(§1) A commercially available PET membrane is adhered to an open end of a cylinder; the other end remains open. During the adhesion process, a metal ring is used to pull uniformly on the membrane, such that the membrane is then stretched so that it is completely flat but not plastically deformed. 400 μl of cell culture medium (DPBS), corresponding to a fill height of a liquid column of about 2 mm, are then applied to the membrane (having a diameter of 16 mm). Due to the culture medium, the membrane is elastically preformed, i.e. deflected, and prepared for the application of living material.\n(§2) 1 ml of a suspension of fibroblasts (or smooth muscle cells), containing a cell count of 5×10^4/ml (or 7×10^4/ml), is then added to the prestretched membrane and the entire device is incubated in an incubator at 37° C. for 4 days for the purpose of culturing the cells. After the culturing, the culture medium is replaced with 400 μl of fresh medium. The mounting, together with membrane and cells cultured on it, which has thus been prepared is inserted into the measuring device and the measurement is carried out using a laser beam as the sensor.\n(§3) As a result of replication, the cells adhere to the membrane and form a confluent monolayer (or multilayer). In connection with this, the cells secrete, over time, an extracellular matrix (ECM).\n(§4) As a result of the growth of the cells, and the tensile stress in the cell layer and in the ECM which is connected therewith, and as a result of the fact that the cells and the ECM adhere to the membrane, the membrane experiences a change in tension. As a consequence of this, the deflection of the membrane decreases and raises the fill level of the medium slightly. This change in the deflection of the membrane is determined using a laser.\n(§5) In order to stimulate the cell layer(s), thrombin is added to the medium to give final concentrations of 0-100 U/ml. 20 U/ml of culture medium are added first of all. The thrombin binds to the thrombin receptors and induces cell contraction. The membrane rises further to a slight extent. In this connection, the cells contract with a time constant which is typical. After a theoretically infinite measuring time, the measured change in the deflection of the membrane reaches a typical saturation value. Further quantities of thrombin are added consecutively to the cell culture medium above the membrane in increasing order, i.e. initially 50 U/ml and then 100 U/ml. The changes in the deflection of the membrane are measured correspondingly.\n(§6) In each case, the cells are permitted to develop the contraction until, in the simplest case by way of fitting an exponential function, there is no need to await the achievement of the final value but, instead, the final measurement of the achievable concentration can be approximated. This decreases the measuring time. Both the characteristic onset time for the thrombin-mediated contraction effect and the maximum contraction which can be achieved in association with this contraction can be calculated from the exponential function which has been fitted.\n(§7) The cells are detached from the ECM by adding EDTA (0.1% by weight) for a reaction time of 2 min. The same volumes as the quantities of liquid which are added in this connection are simultaneously removed once again at another site in the measuring chamber. The cells become detached with a typical time constant. As a consequence of this, the tension in the membrane changes since the forces acting on the membrane as a result of the cell contraction are no longer present; this means that the membrane becomes further deflected once again. In this case, too, an exponential function is approximated and the time constant and the final value of the tension recovery can be calculated approximately.\n(§8) The ECM which is adhering to the membrane still maintains a part of the tension which arose during the cell growth. Adding trypsin (0.2% by weight) for a reaction time of 15 min. degrades the ECM. […]"}
{"molecule": "thrombin", "change in cell layer tension in dependence on time": "contraction of the living material can be observed to increase as the concentration of thrombin increases"}
{"molecule": "trypsin", "change in cell layer tension in dependence on time": "also declines"}
{"molecule": "O=C(O)CN(CCN(CC(=O)O)CC(=O)O)CC(=O)O", "note": "[EDTA]", "change in cell layer tension in dependence on time": "intrinsic forces which are measured decrease"}
{"test_system": "fibroblasts (or smooth muscle cells)", "experiment": "Measurement of lateral intrinsic forces of a cell layer cultured on an elastically deformable membrane (membrane deflection read by laser)", "format": "cell-based", "conditions": "FIG. 5 and FIG. 6; addition of thrombin, then EDTA, then trypsin", "description": "as §1, §2, §3, §4, §5, §6, §7, §8"}
{"molecule": "thrombin", "tension transmitted to the membrane (intrinsic forces)": "increase markedly"}
{"molecule": "trypsin", "tension transmitted to the membrane (intrinsic forces)": "tension in the extracellular matrix to subside"}
{"molecule": "O=C(O)CN(CCN(CC(=O)O)CC(=O)O)CC(=O)O", "note": "[EDTA]", "tension transmitted to the membrane (intrinsic forces)": "membrane relaxing"}
